Source: patent US12611438B2, “Antiviral composition comprising a nucleolin-binding peptide” (ANYGEN CO., LTD., priority 2021, dated 2026)
Like-named read-outs stand apart in the source and are kept apart here.

Tests used:
[1] = 2 mg/kg, tail vein, C57BL/6 mice
Procedure: (§1) In order to determine whether or not the stability of the peptide is enhanced, the in vivo half-life of the peptide was analyzed. […] The absorbance was measured at a wavelength of 450 nm using a VersaMax ELISA plate reader (Molecular Devices) and pharmacokinetics were analyzed with the phoenix WinNonlin 8.1 (Pharsight Corporation, Mountain View, CA, USA) program.

[2] = in vivo; details: C57BL/6, mouse, serum, 2 mg/kg
Procedure: as §1

[3] = tested on: A549, MDCK, Vero E6, MA104, MARC-145, and LLC-PK cells; details: 10 μM
[4] = tested on: SARS-COV-2; details: for Lung, Alveolar wall thickening: Mild, incidence / Lung, Alveolar wall thickening: Minimal, incidence / Lung, Alveolar wall thickening: Moderate, incidence / Lung, Alveolar wall thickening: Normal, incidence / Lung, Alveolar wall thickening: Severe, incidence / Lung, Hemorrhage: Mild, incidence / Lung, Hemorrhage: Minimal, incidence / Lung, Hemorrhage: Moderate, incidence / Lung, Hemorrhage: Normal, incidence / Lung, Hemorrhage: Severe, incidence / Lung, Hyaline membrane: Mild, incidence / Lung, Hyaline membrane: Minimal, incidence / Lung, Hyaline membrane: Moderate, incidence / Lung, Hyaline membrane: Normal, incidence / Lung, Hyaline membrane: Severe, incidence / Lung, Inflammatory cell, intestinal: Mild, incidence / Lung, Inflammatory cell, intestinal: Minimal, incidence / Lung, Inflammatory cell, intestinal: Moderate, incidence / Lung, Inflammatory cell, intestinal: Normal, incidence / Lung, Inflammatory cell, intestinal: Severe, incidence / Lung, Neutrophilic/lymphocytic cell, alveolar: Mild, incidence / Lung, Neutrophilic/lymphocytic cell, alveolar: Minimal, incidence / Lung, Neutrophilic/lymphocytic cell, alveolar: Moderate, incidence / Lung, Neutrophilic/lymphocytic cell, alveolar: Normal, incidence / Lung, Proteinaceous debris: Mild, incidence / Lung, Proteinaceous debris: Minimal, incidence / Lung, Proteinaceous debris: Moderate, incidence / Lung, Proteinaceous debris: Normal, incidence / Lung, Proteinaceous debris: Severe, incidence: 5 animals
Procedure: Syrian hamsters (Female, 11 weeks, Raon Bio Co., Ltd.) were infected with SARS-COV-2 (2×10^5 pfu/mL) through intranasal irrigation.
Body weight was measured on the day of infection, the second day after infection, and the fourth day after infection.
Autopsy was measured on the fourth day after infection.

[5] = in vitro; format: cell-based
Procedure: In order to determine the half maximal cytotoxic concentration (CC50) of AGM-330, confluent A549, MDCK, Vero E6, MA104, MARC-145, and LLC-PK cells grown in 96-well plates were treated with dilutions of NCL-targeting peptide ligands (AGM-330d-mCPP, AGM-330t-mCPP) prepared from a low concentration to […], followed by incubation for 24 hours. After removing each culture medium, 200 μL of a 3-(4,5-dimethylthiazol-2-yl)-2,5-diphenyl tetrazolium bromide (MTT) solution was added thereto, followed by incubation in a 5% CO2 incubator at 36° C. for 4 hours. Then, 150 μL of a DMSO solution was added to each well and then incubated at 20° C. Then, the optical density (OD) was measured at a wavelength of 570 nm with an enzyme-linked immunosorbent assay (ELISA) reader (Table 6).

[6] = tested on: influenza A virus; format: in vivo, C57BL/6 mice; details: 0.04, 0.2, and 1.00 mg/kg i.p. once a day for 5 days, observed 16 days
[7] = in vitro; details: African green monkey

## CSCC[C@H](NC(=O)[C@H](C)NC(=O)CNC(=O)[C@H](Cc1c[nH]cn1)NC(=O)[C@@H](N)CCCNC(=N)N)C(=O)N[C@H](C(=O)N[C@@H](Cc1ccc(O)cc1)C(=O)N[C@@H](CC(C)C)C(=O)N[C@@H](CCCCN)C(=O)NCCOCCOCCOCCOCCOCCOCCC(=O)NCCCC[C@H](NC(=O)CCOCCOCCOCCOCCOCCOCCNC(=O)[C@H](CCCCN)NC(=O)[C@H](CC(C)C)NC(=O)[C@H](Cc1ccc(O)cc1)NC(=O)[C@@H](NC(=O)[C@H](CCSC)NC(=O)[C@H](C)NC(=O)CNC(=O)[C@H](Cc1c[nH]cn1)NC(=O)[C@@H](N)CCCNC(=N)N)C(C)C)C(=O)NCCCC[C@H](NC(=O)[C@H](CCCCNC(=O)CCOCCOCCOCCOCCOCCOCCNC(=O)[C@H](CCCCN)NC(=O)[C@H](CC(C)C)NC(=O)[C@H](Cc1ccc(O)cc1)NC(=O)[C@@H](NC(=O)[C@H](CCSC)NC(=O)[C@H](C)NC(=O)CNC(=O)[C@H](Cc1c[nH]cn1)NC(=O)[C@@H](N)CCCNC(=N)N)C(C)C)NC(=O)CCOCCOCCOCCOCCOCCOCCNC(=O)[C@H](CCCCN)NC(=O)[C@H](CC(C)C)NC(=O)[C@H](Cc1ccc(O)cc1)NC(=O)[C@@H](NC(=O)[C@H](CCSC)NC(=O)[C@H](C)NC(=O)CNC(=O)[C@H](Cc1c[nH]cn1)NC(=O)[C@@H](N)CCCNC(=N)N)C(C)C)C(=O)N[C@@H](CS)C(=O)O)C(C)C [AGM-330t]
[1]
  in vivo stability compared with monomeric or dimeric peptides: higher stability
[2]; intravenous
  Cmax: 1880 ± 670 ng/mL
  Tmax: 10 min
  half-life: 566 ± 72.6 min
[2]; iv
  AUC: 21400 ± 810 ng·h/mL

## CC[C@H](C)[C@H](NC(=O)[C@H](CCCNC(=N)N)NC(=O)CCN1C(=O)CC(SC[C@H](NC(=O)[C@H](CCCCNC(=O)CCOCCOCCOCCOCCOCCOCCNC(=O)[C@H](CCCCN)NC(=O)[C@H](CC(C)C)NC(=O)[C@H](Cc2ccc(O)cc2)NC(=O)[C@@H](NC(=O)[C@H](CCSC)NC(=O)[C@H](C)NC(=O)CNC(=O)[C@H](Cc2c[nH]cn2)NC(=O)[C@@H](N)CCCNC(=N)N)C(C)C)NC(=O)CCOCCOCCOCCOCCOCCOCCNC(=O)[C@H](CCCCN)NC(=O)[C@H](CC(C)C)NC(=O)[C@H](Cc2ccc(O)cc2)NC(=O)[C@@H](NC(=O)[C@H](CCSC)NC(=O)[C@H](C)NC(=O)CNC(=O)[C@H](Cc2c[nH]cn2)NC(=O)[C@@H](N)CCCNC(=N)N)C(C)C)C(=O)O)C1=O)C(=O)N[C@@H](CCSC)C(=O)N[C@@H](CCCNC(=N)N)C(=O)N[C@H](C(=O)N[C@@H](CC(C)C)C(=O)N[C@@H](CCCNC(=N)N)C(=O)N[C@H](C(=O)N[C@@H](CC(C)C)C(=O)N[C@@H](CCCCN)C(=O)N[C@@H](CC(C)C)C(=O)N[C@@H](C)C(=O)N[C@@H](CCCNC(=N)N)C(=O)O)[C@@H](C)CC)[C@@H](C)CC (stereo partly drawn) [AGM-330d-mCPP]
[3]
  cytotoxicity at high concentration: did not exhibit significant cytotoxicity
[4]; 6 mg/kg
  lung histopathological lesions versus virus control group: significantly reduced
[4]; 6 mg/kg, autopsy fourth day after infection
  macroscopic lung changes versus virus control group: significantly alleviated
[4]; 0.2, 2, 6 mg/kg i.p., eight times for four days, observed 5 days after infection
  mortality: no dead animals occurred
[4]; 0.2, 2, 6 mg/kg i.p., day of infection, day 2, day 4
  body weight change versus virus control group: No significant weight change
[4]; AGM-1: 0.2 mg/kg
  Lung, Alveolar wall thickening: Mild, incidence: 3
  Lung, Alveolar wall thickening: Minimal, incidence: 0
  Lung, Alveolar wall thickening: Moderate, incidence: 2
  Lung, Alveolar wall thickening: Normal, incidence: 0
  Lung, Alveolar wall thickening: Severe, incidence: 0
  Lung, Hemorrhage: Mild, incidence: 2
  Lung, Hemorrhage: Minimal, incidence: 3
  Lung, Hemorrhage: Moderate, incidence: 0
  Lung, Hemorrhage: Normal, incidence: 0
  Lung, Hemorrhage: Severe, incidence: 0
  Lung, Hyaline membrane: Mild, incidence: 3
  Lung, Hyaline membrane: Minimal, incidence: 0
  Lung, Hyaline membrane: Moderate, incidence: 2
  Lung, Hyaline membrane: Normal, incidence: 0
  Lung, Hyaline membrane: Severe, incidence: 0
  Lung, Inflammatory cell, intestinal: Mild, incidence: 2
  Lung, Inflammatory cell, intestinal: Minimal, incidence: 0
  Lung, Inflammatory cell, intestinal: Moderate, incidence: 3
  Lung, Inflammatory cell, intestinal: Normal, incidence: 0
  Lung, Inflammatory cell, intestinal: Severe, incidence: 0
  Lung, Neutrophilic/lymphocytic cell, alveolar: Mild, incidence: 3
  Lung, Neutrophilic/lymphocytic cell, alveolar: Minimal, incidence: 2
  Lung, Neutrophilic/lymphocytic cell, alveolar: Moderate, incidence: 0
  Lung, Neutrophilic/lymphocytic cell, alveolar: Normal, incidence: 0
  Lung, Proteinaceous debris: Mild, incidence: 2
  Lung, Proteinaceous debris: Minimal, incidence: 3
  Lung, Proteinaceous debris: Moderate, incidence: 0
  Lung, Proteinaceous debris: Normal, incidence: 0
  Lung, Proteinaceous debris: Severe, incidence: 0
[4]; AGM-2: 2 mg/kg
  Lung, Alveolar wall thickening: Mild, incidence: 3
  Lung, Alveolar wall thickening: Minimal, incidence: 0
  Lung, Alveolar wall thickening: Moderate, incidence: 2
  Lung, Alveolar wall thickening: Normal, incidence: 0
  Lung, Alveolar wall thickening: Severe, incidence: 0
  Lung, Hemorrhage: Mild, incidence: 3
  Lung, Hemorrhage: Minimal, incidence: 2
  Lung, Hemorrhage: Moderate, incidence: 0
  Lung, Hemorrhage: Normal, incidence: 0
  Lung, Hemorrhage: Severe, incidence: 0
  Lung, Hyaline membrane: Mild, incidence: 3
  Lung, Hyaline membrane: Minimal, incidence: 0
  Lung, Hyaline membrane: Moderate, incidence: 2
  Lung, Hyaline membrane: Normal, incidence: 0
  Lung, Hyaline membrane: Severe, incidence: 0
  Lung, Inflammatory cell, intestinal: Mild, incidence: 1
  Lung, Inflammatory cell, intestinal: Minimal, incidence: 0
  Lung, Inflammatory cell, intestinal: Moderate, incidence: 3
  Lung, Inflammatory cell, intestinal: Normal, incidence: 0
  Lung, Inflammatory cell, intestinal: Severe, incidence: 1
  Lung, Neutrophilic/lymphocytic cell, alveolar: Mild, incidence: 3
  Lung, Neutrophilic/lymphocytic cell, alveolar: Minimal, incidence: 2
  Lung, Neutrophilic/lymphocytic cell, alveolar: Moderate, incidence: 0
  Lung, Neutrophilic/lymphocytic cell, alveolar: Normal, incidence: 0
  Lung, Proteinaceous debris: Mild, incidence: 2
  Lung, Proteinaceous debris: Minimal, incidence: 3
  Lung, Proteinaceous debris: Moderate, incidence: 0
  Lung, Proteinaceous debris: Normal, incidence: 0
  Lung, Proteinaceous debris: Severe, incidence: 0
[4]; AGM-3: 6 mg/kg
  Lung, Alveolar wall thickening: Mild, incidence: 3
  Lung, Alveolar wall thickening: Minimal, incidence: 2
  Lung, Alveolar wall thickening: Moderate, incidence: 0
  Lung, Alveolar wall thickening: Normal, incidence: 0
  Lung, Alveolar wall thickening: Severe, incidence: 0
  Lung, Hemorrhage: Mild, incidence: 0
  Lung, Hemorrhage: Minimal, incidence: 5
  Lung, Hemorrhage: Moderate, incidence: 0
  Lung, Hemorrhage: Normal, incidence: 0
  Lung, Hemorrhage: Severe, incidence: 0
  Lung, Hyaline membrane: Mild, incidence: 1
  Lung, Hyaline membrane: Minimal, incidence: 4
  Lung, Hyaline membrane: Moderate, incidence: 0
  Lung, Hyaline membrane: Normal, incidence: 0
  Lung, Hyaline membrane: Severe, incidence: 0
  Lung, Inflammatory cell, intestinal: Mild, incidence: 3
  Lung, Inflammatory cell, intestinal: Minimal, incidence: 2
  Lung, Inflammatory cell, intestinal: Moderate, incidence: 0
  Lung, Inflammatory cell, intestinal: Normal, incidence: 0
  Lung, Inflammatory cell, intestinal: Severe, incidence: 0
  Lung, Neutrophilic/lymphocytic cell, alveolar: Mild, incidence: 0
  Lung, Neutrophilic/lymphocytic cell, alveolar: Minimal, incidence: 5
  Lung, Neutrophilic/lymphocytic cell, alveolar: Moderate, incidence: 0
  Lung, Neutrophilic/lymphocytic cell, alveolar: Normal, incidence: 0
  Lung, Proteinaceous debris: Mild, incidence: 1
  Lung, Proteinaceous debris: Minimal, incidence: 4
  Lung, Proteinaceous debris: Moderate, incidence: 0
  Lung, Proteinaceous debris: Normal, incidence: 0
  Lung, Proteinaceous debris: Severe, incidence: 0
[5]; African green monkey, MA-104, MTT
  CC50 at 24 h: 99.9 µM
[5]; African green monkey, MARC-145, MTT
  CC50 at 24 h: 98 µM
[5]; African green monkey, Vero E6, MTT
  CC50 at 24 h: 108 µM
[5]; human, A549, MTT
  CC50 at 24 h: 102 µM
[5]; human, HRT-18, MTT
  CC50 at 24 h: 89.5 µM
[5]; pig, LLC-PK, MTT
  CC50 at 24 h: 101 µM
[6]
  survival rate: significantly improved survival rate
[7]
  CC50 at 24 h: > 20 µM
